# Experimental data published in article PMC3713598, “Renal Protective Role of Xiexin Decoction with Multiple Active Ingredients Involves Inhibition of Inflammation through Downregulation of the Nuclear Factor-κB Pathway in Diabetic Rats” (Evidence-based Complementary and Alternative Medicine : eCAM, 2013).
# Where two headings read alike, the source gives them in different places.
# Key:
# RAGE = assay: Renal RAGE expression by western blot in diabetic rats; assay type: in vivo, rat; details: XXD 1.25 and 2.5 g/kg, metformin 100 mg/kg ig once a day, 12 weeks; compared with DM
# Method: Male Sprague-Dawley rats (90−100 g) were purchased from the Shanghai Slac Laboratory Animal Co. (Shanghai, China). The rats were housed in an air-conditioned room at 22–24°C under a 12-h dark/light cycle and were given food and water at libitum. All animal experiments were conducted in accordance with the institutional guidelines for the care and use of laboratory animals at Shanghai University of TCM. After 1-week adaptation, animals were divided into a normal control (NC) group fed a standard diet and a high-fat group received a high-fat diet. After 4 weeks, rats on the high-fat diet were treated with streptozotocin (40 mg/kg, intraperitoneal injection). […] In the clinical practice of TCM, XXD is usually prescribed at a daily dose of 46 g of herbal materials (amount to 12 g extract) for diabetic patient. When this human dose was converted into an animal dose (a person of 60 kg, and a conversion factor of 6.25 between human and rat), it was equivalent to the low dose (1.25 g/kg extract) used in this study. […]
# Kidney tissue was homogenized in radioimmunoprecipitation assay buffer containing 0.5% Nonidet P-40, 0.5% sodium deoxycholate, 0.1% SDS, 10 mmol/L EDTA, and protease inhibitors. […] The membrane-bound antibody was detected by incubation with chemiluminescent reagent plus (Perkin Elmer Life Sciences, Boston, MA, USA) and the signal captured on X-ray film. […]
# AGEs = assay: Renal AGEs level by ELISA in diabetic rats; assay type: in vivo, rat; details: XXD 1.25 and 2.5 g/kg, metformin 100 mg/kg ig once a day, 12 weeks; compared with DM
# Method: (§1) Male Sprague-Dawley rats (90−100 g) were purchased from the Shanghai Slac Laboratory Animal Co. (Shanghai, China). The rats were housed in an air-conditioned room at 22–24°C under a 12-h dark/light cycle and were given food and water at libitum. All animal experiments were conducted in accordance with the institutional guidelines for the care and use of laboratory animals at Shanghai University of TCM. After 1-week adaptation, animals were divided into a normal control (NC) group fed a standard diet and a high-fat group received a high-fat diet. After 4 weeks, rats on the high-fat diet were treated with streptozotocin (40 mg/kg, intraperitoneal injection). […] In the clinical practice of TCM, XXD is usually prescribed at a daily dose of 46 g of herbal materials (amount to 12 g extract) for diabetic patient. When this human dose was converted into an animal dose (a person of 60 kg, and a conversion factor of 6.25 between human and rat), it was equivalent to the low dose (1.25 g/kg extract) used in this study. NC and DM were treated with vehicle (normal saline) in a matched volume. All the rats were administered the drugs via intragastric gavage (ig) once a day, for 12 weeks.
# Tumor necrosis factor α (TNF-α), IL-6 and AGEs protein levels in renal tissue were measured using commercial ELISA kits (R&D, Minneapolis, MN, USA) according to the manufacturer's instructions.
# ICAM-1 = assay: Renal ICAM-1 protein and mRNA expression in diabetic rats; assay type: in vivo, rat; details: XXD 1.25 and 2.5 g/kg, losartan 10 mg/kg, metformin 100 mg/kg ig once a day, 12 weeks; compared with DM
# Method: (§2) Male Sprague-Dawley rats (90-100 g) were purchased from the Shanghai Slac Laboratory Animal Co. (Shanghai, China). The rats were housed in an air-conditioned room at 22-24°C under a 12-h dark/light cycle and were given food and water at libitum. All animal experiments were conducted in accordance with the institutional guidelines for the care and use of laboratory animals at Shanghai University of TCM. After 1-week adaptation, animals were divided into a normal control (NC) group fed a standard diet and a high-fat group received a high-fat diet. After 4 weeks, rats on the high-fat diet were treated with streptozotocin (40 mg/kg, intraperitoneal injection). All diabetic rats with fasting blood glucose (FBG) levels above 16.7 mmol/L were then randomly divided into 5 groups: diabetic model control (DM); […] In the clinical practice of TCM, XXD is usually prescribed at a daily dose of 46 g of herbal materials (amount to 12 g extract) for diabetic patient. When this human dose was converted into an animal dose (a person of 60 kg, and a conversion factor of 6.25 between human and rat), it was equivalent to the low dose (1.25 g/kg extract) used in this study. […] The membrane-bound antibody was detected by incubation with chemiluminescent reagent plus (Perkin Elmer Life Sciences, Boston, MA, USA) and the signal captured on X-ray film. […]
# diabetic rats [1] = assay: Renal histopathology (PAS) and electron microscopy in diabetic rats; assay type: in vivo, rat; details: XXD 1.25 and 2.5 g/kg, losartan 10 mg/kg, metformin 100 mg/kg ig once a day, 12 weeks; compared with DM
# Method: Male Sprague-Dawley rats (90-100 g) were purchased from the Shanghai Slac Laboratory Animal Co. (Shanghai, China). The rats were housed in an air-conditioned room at 22-24°C under a 12-h dark/light cycle and were given food and water at libitum. All animal experiments were conducted in accordance with the institutional guidelines for the care and use of laboratory animals at Shanghai University of TCM. After 1-week adaptation, animals were divided into a normal control (NC) group fed a standard diet and a high-fat group received a high-fat diet. After 4 weeks, rats on the high-fat diet were treated with streptozotocin (40 mg/kg, intraperitoneal injection). All diabetic rats with fasting blood glucose (FBG) levels above 16.7 mmol/L were then randomly divided into 5 groups: diabetic model control (DM); […] In the clinical practice of TCM, XXD is usually prescribed at a daily dose of 46 g of herbal materials (amount to 12 g extract) for diabetic patient. […] The ratio of the mesangial matrix area to glomerular area (M/G) was determined by quantitative Image-Pro Plus software (PAX-it; […], Villa Park, IL, USA). Briefly, 20 glomeruli were randomly selected from each section, and positive signals within the selected glomerulus were highlighted, measured, and quantified as percent positive area of the entire glomerulus. […]
# TNF-α = assay: Renal TNF-α level by ELISA in diabetic rats; assay type: in vivo, rat; details: XXD 1.25 and 2.5 g/kg, losartan 10 mg/kg, metformin 100 mg/kg ig once a day, 12 weeks; compared with DM
# Method: (§3) Male Sprague-Dawley rats (90-100 g) were purchased from the Shanghai Slac Laboratory Animal Co. (Shanghai, China). The rats were housed in an air-conditioned room at 22-24°C under a 12-h dark/light cycle and were given food and water at libitum. All animal experiments were conducted in accordance with the institutional guidelines for the care and use of laboratory animals at Shanghai University of TCM. After 1-week adaptation, animals were divided into a normal control (NC) group fed a standard diet and a high-fat group received a high-fat diet. After 4 weeks, rats on the high-fat diet were treated with streptozotocin (40 mg/kg, intraperitoneal injection). All diabetic rats with fasting blood glucose (FBG) levels above 16.7 mmol/L were then randomly divided into 5 groups: diabetic model control (DM); […] In the clinical practice of TCM, XXD is usually prescribed at a daily dose of 46 g of herbal materials (amount to 12 g extract) for diabetic patient. When this human dose was converted into an animal dose (a person of 60 kg, and a conversion factor of 6.25 between human and rat), it was equivalent to the low dose (1.25 g/kg extract) used in this study. […] Tumor necrosis factor α (TNF-α), IL-6 and AGEs protein levels in renal tissue were measured using commercial ELISA kits (R&D, Minneapolis, MN, USA) according to the manufacturer's instructions.
# MCP-1 = assay: Renal MCP-1 protein and mRNA expression in diabetic rats; assay type: in vivo, rat; details: XXD 1.25 and 2.5 g/kg, losartan 10 mg/kg, metformin 100 mg/kg ig once a day, 12 weeks; compared with DM
# Method: as §2
# diabetic rats [2] = assay: Metabolic parameters in diabetic rats (high-fat diet and streptozotocin); assay type: in vivo, rat; details: for Serum triglyceride: DM 1.1 ± 0.6; for Serum cholesterol: DM 1.5 ± 0.2; for HbA1c: DM 7.2 ± 0.3; for FBG: DM 22.3 ± 2.8; for GAUC (area under the blood glucose response curve): DM 117.1 ± 6.4
# Method: (§4) After 1-week adaptation, animals were divided into a normal control (NC) group fed a standard diet and a high-fat group received a high-fat diet. After 4 weeks, rats on the high-fat diet were treated with streptozotocin (40 mg/kg, intraperitoneal injection). […] NC and DM were treated with vehicle (normal saline) in a matched volume. All the rats were administered the drugs via intragastric gavage (ig) once a day, for 12 weeks.
# At 12 weeks, FBG and area under the blood glucose response curve (GAUC) were measured by glucose oxidase method. HbA1c was determined by HPLC (Biorad, Richmond, CA, USA). Serum creatinine, urine creatinine, serum total cholesterol, and triglyceride levels were measured using an automatic biochemistry analyser (Olympus-2000, Tokyo, Japan). Creatinine clearance was calculated.
# diabetic mouse kidney = system: diabetic mouse kidney; set-up: method as in PMID 22483555, PMID 20447389; details: cited from earlier work
# [3] = Pharmacokinetics of XXD ingredients in diabetic rat plasma (LC-MS/MS); assay type: in vivo; details: diabetic rats; for AUC(0-t) / Cmax: male, Sprague-Dawley, rat, po, plasma, mean ± SD n = 8; for AUC(0-t): read-out: AUC0–24 h; for Cmax: read-out: C max
# Method: as §1
# The rats treated with XXD for 12 weeks were fasted with free access to water for 12 h before the PK experiments. Blood samples were collected before dosing and at 0, 0.25, 0.5, 1, 2, 4, 6, 12, and 24 h following administration. A validated liquid chromatography-tandem mass spectrometry (LC-MS/MS) method was applied to simultaneously determine the concentration of 11 ingredients (coptisine, jatrorrhizine, berberine, palmatine, baicalin, baicalein, wogonoside, wogonin, rhein, emodin, and aloeemodin) in blood plasma. The plasma concentration-time data were analysed by noncompartmental methods with the WinNonLin software package (Pharsight Corporation, Mountain View, CA, USA) to determine PK parameters.
# diabetic nephropathy = details: cited from earlier work
# gut microbes = system: gut microbes; set-up: method as in PMID 21915347, PMID 22880019; details: by regulation of gut microbes; cited from earlier work
# TGF-β1 = assay: Renal TGF-β1 protein and mRNA expression in diabetic rats; assay type: in vivo, rat; details: XXD 1.25 and 2.5 g/kg, losartan 10 mg/kg ig once a day, 12 weeks; compared with DM
# Method: as §2
# NF-κB signalling pathway = assay: Renal NF-κB signalling pathway (western blot, real-time PCR) in diabetic rats; assay type: in vivo, rat; details: XXD 1.25 and 2.5 g/kg, losartan 10 mg/kg ig once a day, 12 weeks; compared with DM
# Method: as §2
# diabetic rats [4] = assay: Urinary albumin excretion and renal function in diabetic rats; assay type: in vivo, rat
# Method: as §4
# At 12 weeks, FBG and area under the blood glucose response curve (GAUC) were measured by glucose oxidase method. HbA1c was determined by HPLC (Biorad, Richmond, CA, USA). Serum creatinine, urine creatinine, serum total cholesterol, and triglyceride levels were measured using an automatic biochemistry analyser (Olympus-2000, Tokyo, Japan). Creatinine clearance was calculated. The kidneys were removed, weighed, and parts of them frozen at −80°C until processing for Western blot and RNA extraction, while other parts were removed for histological examination.
# IL-6 = assay: Renal IL-6 level by ELISA in diabetic rats; assay type: in vivo, rat; details: XXD 1.25 and 2.5 g/kg, losartan 10 mg/kg ig once a day, 12 weeks; compared with DM
# Method: as §3
# [5] = metformin 100 mg/kg ig once a day 12 weeks
# [6] = XXD 1.25 g/kg intragastric gavage for 12 weeks
# [7] = XXD 2.5 g/kg intragastric gavage for 12 weeks
# [8] = losartan 10 mg/kg ig once a day 12 weeks
structure (smiles),measurement,setting,value
CN(C)C(=N)N=C(N)N [metformin],renal RAGE expression,RAGE,downregulated
same,total renal AGEs content,AGEs,significantly reduced
same,renal protein and mRNA ICAM-1 expression,ICAM-1,significant reduction
same,"renal pathological changes (glomerular hypertrophy, mesangial matrix expansion, M/G, basement membrane thickening)",diabetic rats [1],ameliorated
same,renal TNF-α level,TNF-α,significant reduction
same,renal protein and mRNA MCP-1 expression,MCP-1,significant reduction
same,Serum triglyceride,diabetic rats [2]; [5],1.0 ± 0.3 mmol/L
same,Serum cholesterol,diabetic rats [2]; [5],1.2 ± 0.4 mmol/L
same,HbA1c,diabetic rats [2]; [5],6.6 ± 0.5 %
same,FBG,diabetic rats [2]; [5],9.4 ± 2.5 mmol/L
same,GAUC (area under the blood glucose response curve),diabetic rats [2]; [5],70.9 ± 9.5 mmol·h/L
"COc1ccc2cc3[n+](cc2c1OC)CCc1cc2c(cc1-3)OCO2 [Berberine, berberine]","TGF-β1, ICAM-1, and VCAM-1 protein expression",diabetic mouse kidney,downregulating
same,renal AGE generation,diabetic mouse kidney,inhibiting
same,IKBα protein level,diabetic mouse kidney; diabetic mouse kidney,increased
same,NF-κBp65 protein level,diabetic mouse kidney; diabetic mouse kidney,decreased
same,shape of plasma concentration-time curve,[3]; after ig administration of XXD for 12 weeks,double peaks
same,AUC(0-t),[3]; [6],757 ± 389 ng·h/mL
same,Cmax,[3]; [6],51 ± 20 ng/mL
same,AUC(0-t),[3]; [7],1730 ± 1040 ng·h/mL
same,Cmax,[3]; [7],118 ± 78 ng/mL
same,anti-DN effects,diabetic nephropathy,exhibited anti-DN effects
same,blood lipid levels,gut microbes,reduced
CCCCc1nc(Cl)c(CO)n1Cc1ccc(-c2ccccc2-c2nn[nH]n2)cc1 [losartan],renal TGF-β1 protein and mRNA expression,TGF-β1,significantly downregulated
same,renal protein and mRNA ICAM-1 expression,ICAM-1,significantly downregulated
same,"renal IKKα, phospho-IκBα, phospho-NF-κBp65, NF-κBp65 and IκBα protein expression changes",NF-κB signalling pathway,significantly ameliorated
same,renal NF-κBp65 mRNA expression,NF-κB signalling pathway,downregulated
same,urinary albumin excretion (UAE),"diabetic rats [4]; XXD 1.25 and 2.5 g/kg, losartan 10 mg/kg, metformin 100 mg/kg ig once a day, 12 weeks, compared with DM",significantly reduced
same,Kidney weight/body weight,"diabetic rats [4]; losartan 10 mg/kg ig once a day 12 weeks, DM 1.18 ± 0.06",1.00 ± 0.05 %
same,"renal pathological changes (glomerular hypertrophy, mesangial matrix expansion, M/G, basement membrane thickening)",diabetic rats [1],ameliorated
same,renal TNF-α level,TNF-α,significantly downregulated
same,renal protein and mRNA MCP-1 expression,MCP-1,significantly downregulated
same,renal IL-6 level,IL-6,significantly downregulated
same,Serum triglyceride,diabetic rats [2]; [8],0.7 ± 0.3 mmol/L
same,Serum cholesterol,diabetic rats [2]; [8],1.3 ± 0.2 mmol/L
same,HbA1c,diabetic rats [2]; [8],6.9 ± 0.2%
same,FBG,diabetic rats [2]; [8],21.6 ± 4.4 mmol/L
same,GAUC (area under the blood glucose response curve),diabetic rats [2]; [8],111.8 ± 11.1 mmol·h/L
